Results reported in the supplement of paper PMC11208160.

Experiment: recombinant UMI read abundance after kanamycin selection (control-corrected) (log10(CPM+1)); higher = more efficient recombination; extreme values may be limits of the assay; sequences stand for … in AGTGCAGAGAAAATCGGCCAGTTTTCTCTGCCTGCAGTCCGCATGCCGTGGGACCCCTTGGGTTCTAACCTGTTGCCTAGATTTATGCAGCGGACTGCCTTTCTCCCAAAGTGATAAACCGG…AGGTTGGTTTCACT; site = the 11-nt donor
Outline: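 For the IS621 bridge recombinase, a pooled Escherichia coli screen tested donor and donor-binding-loop pairs. Cells received the pair library together with a target plasmid encoding a fixed target and T7-inducible recombinase, then went onto IPTG (0.07 mM) plus kanamycin or unselected plates in duplicate. After PCR across the donor–target junction and sequencing, recombinant UMI counts were normalized to CPM, averaged, and scaled by control-derived factors. Each value is given as log10(CPM+1).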
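Also: IS621 bridge recombinase in Escherichia coli cells against a fixed T5 target plasmid.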

Question: For “GGTGCTGCATGGACCGGTTTTCCCGGTAATCCGTATTTGCT (site GGTGCTGCTAG)”, which “recombinant UMI read abundance (log10)” value is on record?
Answer: 1.53

Question: With “GGTGTAGCATGGACCGGTTTTCCCGGTAATCCGTATTTGGT (site GGTGTAGCTAC)” as the sequence, how does the “recombinant UMI read abundance (log10)” value read?
Answer: 0.0948

Question: For “GGTGTGACATGGACCGGTTTTCCCGGTAATCCGTATTTGTG (site GGTGTGACTCA)”, which “recombinant UMI read abundance (log10)” value is on record?
Answer: 0.68

Question: With “GGTGTGTCATGGACCGGTTTTCCCGGTAATCCGTATTTGTG (site GGTGTGTCTCA)” as the sequence, how does the “recombinant UMI read abundance (log10)” value read?
Answer: 1.16

Question: For “GGTTAGACATGGACCGGTTTTCCCGGTAATCCGTATTTGCC (site GGATAGACTGG)”, which “recombinant UMI read abundance (log10)” value is on record?
Answer: 1.17

Question: Which “recombinant UMI read abundance (log10)” value does the source give for “GGTTAGACATGGACCGGTTTTCCCGGTAATCCGTATTTGCC (site GGCTAGACTGG)” here?
Answer: 1.32

Question: With “GGTTAGACATGGACCGGTTTTCCCGGTAATCCGTATTTGCC (site GGGTAGACTGG)” as the sequence, how does the “recombinant UMI read abundance (log10)” value read?
Answer: 1.27

Question: For “GGTTAGACATGGACCGGTTTTCCCGGTAATCCGTATTTGCC (site GGTTAGACTGG)”, which “recombinant UMI read abundance (log10)” value is on record?
Answer: 1.9

Question: For “GGTTAGTCATGGACCGGTTTTCCCGGTAATCCGTATTTGCC (site GGTTAGTCTGG)”, which “recombinant UMI read abundance (log10)” value is on record?
Answer: 2.06

Question: For “GGTTCAACATGGACCGGTTTTCCCGGTAATCCGTATTTGTA (site GGTACAACTTA)”, which “recombinant UMI read abundance (log10)” value is on record?
Answer: 0.00935

Question: For “GGTTCAACATGGACCGGTTTTCCCGGTAATCCGTATTTGTA (site GGTCCAACTTA)”, which “recombinant UMI read abundance (log10)” value is on record?
Answer: 0.262

Question: Which “recombinant UMI read abundance (log10)” value does the source give for “GGTTCAACATGGACCGGTTTTCCCGGTAATCCGTATTTGTA (site GGTGCAACTTA)” here?
Answer: 0.00737

Question: For “GGTTCAACATGGACCGGTTTTCCCGGTAATCCGTATTTGTA (site GGTTCAACTTA)”, which “recombinant UMI read abundance (log10)” value is on record?
Answer: 0.00797

Question: For “GGTTCATCATGGACCGGTTTTCCCGGTAATCCGTATTTGCC (site GGTTCATCTGG)”, which “recombinant UMI read abundance (log10)” value is on record?
Answer: 1.07

Question: With “GGTTCATCATGGACCGGTTTTCCCGGTAATCCGTATTTGCT (site CGATCATCTAG)” as the sequence, how does the “recombinant UMI read abundance (log10)” value read?
Answer: 0

Question: With “GGTTCATCATGGACCGGTTTTCCCGGTAATCCGTATTTGCT (site GGTTCATCTAG)” as the sequence, how does the “recombinant UMI read abundance (log10)” value read?
Answer: 1.84

Question: For “GGTTGTCCATGGACCGGTTTTCCCGGTAATCCGTATTTGGC (site GGTTGTCCTGC)”, which “recombinant UMI read abundance (log10)” value is on record?
Answer: 0

Question: Which “recombinant UMI read abundance (log10)” value does the source give for “GGTTTGGCATGGACCGGTTTTCCCGGTAATCCGTATTTGCT (site AGTTTGGCTAG)” here?
Answer: 0.702

Question: Which “recombinant UMI read abundance (log10)” value does the source give for “GGTTTGGCATGGACCGGTTTTCCCGGTAATCCGTATTTGCT (site CGTTTGGCTAG)” here?
Answer: 0

Question: Which “recombinant UMI read abundance (log10)” value does the source give for “GGTTTGGCATGGACCGGTTTTCCCGGTAATCCGTATTTGCT (site GGTTTGGCTAG)” here?
Answer: 0

Question: Which “recombinant UMI read abundance (log10)” value does the source give for “GGTTTGGCATGGACCGGTTTTCCCGGTAATCCGTATTTGCT (site TGTTTGGCTAG)” here?
Answer: 0.00406

Question: With “GTAAACGCATGGACCGGTTTTCCCGGTAATCCGTATTTGTT (site GTAAACGCTAA)” as the sequence, how does the “recombinant UMI read abundance (log10)” value read?
Answer: 2.59

Question: For “GTAACGCCATGGACCGGTTTTCCCGGTAATCCGTATTTGGT (site GTAACGCCTAC)”, which “recombinant UMI read abundance (log10)” value is on record?
Answer: 0.517

Question: Which “recombinant UMI read abundance (log10)” value does the source give for “GTAAGTACATGGACCGGTTTTCCCGGTAATCCGTATTTGAC (site GTAAGTACTGT)” here?
Answer: 2.96

Question: With “GTAAGTACATGGACCGGTTTTCCCGGTAATCCGTATTTGAC (site GTACGTACTGT)” as the sequence, how does the “recombinant UMI read abundance (log10)” value read?
Answer: 0

Question: For “GTAAGTACATGGACCGGTTTTCCCGGTAATCCGTATTTGAC (site GTAGGTACTGT)”, which “recombinant UMI read abundance (log10)” value is on record?
Answer: 0.255

Question: For “GTAAGTACATGGACCGGTTTTCCCGGTAATCCGTATTTGAC (site GTATGTACTGT)”, which “recombinant UMI read abundance (log10)” value is on record?
Answer: 0.67

Question: For “GTAATATCATGGACCGGTTTTCCCGGTAATCCGTATTTGCA (site GTAATATCTTG)”, which “recombinant UMI read abundance (log10)” value is on record?
Answer: 2.6

Question: Which “recombinant UMI read abundance (log10)” value does the source give for “GTAATCACATGGACCGGTTTTCCCGGTAATCCGTATTTGCG (site GTAATCACTCG)” here?
Answer: 2.48

Question: With “GTACGAGCATGGACCGGTTTTCCCGGTAATCCGTATTTGCA (site GTACGAGCTTG)” as the sequence, how does the “recombinant UMI read abundance (log10)” value read?
Answer: 2.55

Question: With “GTACGAGCATGGACCGGTTTTCCCGGTAATCCGTATTTGCA (site GTCCGAGCTTG)” as the sequence, how does the “recombinant UMI read abundance (log10)” value read?
Answer: 0.87

Question: For “GTACGAGCATGGACCGGTTTTCCCGGTAATCCGTATTTGCA (site GTGCGAGCTTG)”, which “recombinant UMI read abundance (log10)” value is on record?
Answer: 2.02

Question: Which “recombinant UMI read abundance (log10)” value does the source give for “GTACGAGCATGGACCGGTTTTCCCGGTAATCCGTATTTGCA (site GTTCGAGCTTG)” here?
Answer: 0.659

Question: With “GTACTAACATGGACCGGTTTTCCCGGTAATCCGTATTTGGA (site ATACTAACTTC)” as the sequence, how does the “recombinant UMI read abundance (log10)” value read?
Answer: 0.569

Question: With “GTACTAACATGGACCGGTTTTCCCGGTAATCCGTATTTGGA (site CTACTAACTTC)” as the sequence, how does the “recombinant UMI read abundance (log10)” value read?
Answer: 0.455

Question: For “GTACTAACATGGACCGGTTTTCCCGGTAATCCGTATTTGGA (site GTACTAACTTC)”, which “recombinant UMI read abundance (log10)” value is on record?
Answer: 1.29

Question: For “GTACTAACATGGACCGGTTTTCCCGGTAATCCGTATTTGGA (site TTACTAACTTC)”, which “recombinant UMI read abundance (log10)” value is on record?
Answer: 0.593

Question: Which “recombinant UMI read abundance (log10)” value does the source give for “GTAGATACATGGACCGGTTTTCCCGGTAATCCGTATTTGAC (site GTAGATACTGT)” here?
Answer: 2.29

Question: Which “recombinant UMI read abundance (log10)” value does the source give for “GTAGATACATGGACCGGTTTTCCCGGTAATCCGTATTTGAC (site GTAGCTACTGT)” here?
Answer: 0

Question: With “GTAGATACATGGACCGGTTTTCCCGGTAATCCGTATTTGAC (site GTAGGTACTGT)” as the sequence, how does the “recombinant UMI read abundance (log10)” value read?
Answer: 1.38

Question: Which “recombinant UMI read abundance (log10)” value does the source give for “GTAGATACATGGACCGGTTTTCCCGGTAATCCGTATTTGAC (site GTAGTTACTGT)” here?
Answer: 0.903

Question: For “GTAGATTCATGGACCGGTTTTCCCGGTAATCCGTATTTGCA (site GTAGATTCTTG)”, which “recombinant UMI read abundance (log10)” value is on record?
Answer: 2.86

Question: With “GTAGCAGCATGGACCGGTTTTCCCGGTAATCCGTATTTGGA (site GTAGCAGCTTC)” as the sequence, how does the “recombinant UMI read abundance (log10)” value read?
Answer: 0.62

Question: Which “recombinant UMI read abundance (log10)” value does the source give for “GTAGCTCCATGGACCGGTTTTCCCGGTAATCCGTATTTGAA (site GTAGCTCCTTT)” here?
Answer: 1

Question: Which “recombinant UMI read abundance (log10)” value does the source give for “GTAGGGACATGGACCGGTTTTCCCGGTAATCCGTATTTGAC (site GTAGGAACTGT)” here?
Answer: 2.21

Question: With “GTAGGGACATGGACCGGTTTTCCCGGTAATCCGTATTTGAC (site GTAGGCACTGT)” as the sequence, how does the “recombinant UMI read abundance (log10)” value read?
Answer: 2.04

Question: For “GTAGGGACATGGACCGGTTTTCCCGGTAATCCGTATTTGAC (site GTAGGGACTGT)”, which “recombinant UMI read abundance (log10)” value is on record?
Answer: 2.63

Question: With “GTAGGGACATGGACCGGTTTTCCCGGTAATCCGTATTTGAC (site GTAGGTACTGT)” as the sequence, how does the “recombinant UMI read abundance (log10)” value read?
Answer: 1.87

Question: Which “recombinant UMI read abundance (log10)” value does the source give for “GTAGGTACATGGACCGGTTTTCCCGGTAATCCGTATTTGTT (site GTAGGTACTAA)” here?
Answer: 1.01

Question: With “GTAGGTCCATGGACCGGTTTTCCCGGTAATCCGTATTTGAC (site GTAGGTACTGT)” as the sequence, how does the “recombinant UMI read abundance (log10)” value read?
Answer: 0

Question: For “GTAGGTCCATGGACCGGTTTTCCCGGTAATCCGTATTTGAC (site GTAGGTCCTGT)”, which “recombinant UMI read abundance (log10)” value is on record?
Answer: 0

Question: For “GTAGGTCCATGGACCGGTTTTCCCGGTAATCCGTATTTGAC (site GTAGGTGCTGT)”, which “recombinant UMI read abundance (log10)” value is on record?
Answer: 0

Question: For “GTAGGTCCATGGACCGGTTTTCCCGGTAATCCGTATTTGAC (site GTAGGTTCTGT)”, which “recombinant UMI read abundance (log10)” value is on record?
Answer: 0

Question: For “GTAGGTTCATGGACCGGTTTTCCCGGTAATCCGTATTTGAC (site GTAGGTACTGT)”, which “recombinant UMI read abundance (log10)” value is on record?
Answer: 1.88

Question: With “GTAGGTTCATGGACCGGTTTTCCCGGTAATCCGTATTTGAC (site GTAGGTCCTGT)” as the sequence, how does the “recombinant UMI read abundance (log10)” value read?
Answer: 1.78

Question: Which “recombinant UMI read abundance (log10)” value does the source give for “GTAGGTTCATGGACCGGTTTTCCCGGTAATCCGTATTTGAC (site GTAGGTGCTGT)” here?
Answer: 0

Question: With “GTAGGTTCATGGACCGGTTTTCCCGGTAATCCGTATTTGAC (site GTAGGTTCTGT)” as the sequence, how does the “recombinant UMI read abundance (log10)” value read?
Answer: 2.46
